“Also recorded” adds a separate entry of the source.
Legend:
[1] = system: RPE1 cells expressing a doxycycline-inducible HORMAD1 construct; experiment: Incucyte time-lapse confluence/proliferation in RPE1 cells with doxycycline-inducible HORMAD1; assay type: cell-based; details: for cellular growth / fitness of HORMAD1 expressing RPE1 cells versus vehicle-induced cells under drug: incucyte confluence, 200 nM BOS172722 or 20 nM AZD1152-HQPA 10 days, 3 μM BAY-1816032 14 days
Procedure: Cell confluence was analysed every 6 hours for 10 days, using incucyte software. Data are from 3 biological replicates and analysed using a two-way ANOVA. […] RPE1 cells expressing a doxycycline-inducible HORMAD1 expression construct were exposed to doxycycline or vehicle (H2O) and were exposed to 20 nM of the Aurora B inhibitor, AZD1152-HQPA. Cell confluence was analysed every 6 hours for 10 days, using incucyte software. Data are from 3 biological replicates and analysed using a two-way ANOVA. […] 7-10 days post drugging, cells were fixed, stained with SRB, and colonies were counted using Cell Profiler. […] 10 days post drugging, cells were fixed, stained with SRB, and colonies were counted using Cell Profiler. […] RPE1 cells expressing a doxycycline-inducible HORMAD1 expression construct were exposed to doxycycline or vehicle (H2O) and to increasing doses of the Aurora B inhibitor, AZD1152-HQPA. 7-10 days post drugging, cells were fixed, stained with SRB, and colonies were counted using Cell Profiler. […] SUM159 cells expressing a doxycycline-inducible HORMAD1 expression construct were exposed to doxycycline or vehicle (H2O) and to increasing doses of the Aurora B inhibitor, AZD1152-HQPA. 10 days post drugging, cells were fixed, stained with SRB, and colonies were counted using Cell Profiler.
RPE1 cells were reverse transfected with BUB1 or control siRNA particles for 3 days. Cell lysates were collected, and analysed by western blotting using anti-BUB1 and anti-β-ACTIN antibodies. […] RPE1 cells expressing a doxycycline-inducible HORMAD1 expression construct were exposed to doxycycline or vehicle, and were reverse transfected with BUB1 or control siRNA particles. 5 days post transfection, cellular viability was estimated using cell titer glo reagent and surviving fractions were calculated relative to DMSO treated cells. […] Statistical significance estimated using a one-way ANOVA with Sidak's correction. C. […] Cell lysates were collected, and analysed by SDS-PAGE and western blotting using anti-HORMAD1, anti-H3 and anti-BUB1 antibodies. […] 7-10 days post doxycycline induction, cells were fixed, stained with SRB, and cellular viability was estimated using SRB absorbance readings. […] Cells were fixed, stained with SRB, and cellular viability was estimated using SRB absorbance readings. […] Cells were imaged every 4 hours, and confluence was continually measured using incucyte software. […] Patient-derived organoids models were grown in culture and cell lysates collected and analysed using SDS-PAGE and western blotting using anti-HORMAD1 and anti-β-ACTIN antibodies. […] Cellular viability was estimated using cell titer glo reagent and surviving fractions were calculated relative to DMSO treated cells. […]

[2] = system: HORMAD1-positive and HORMAD1-negative triple negative breast cancer patient-derived organoids; experiment: Patient-derived TNBC organoids, viability by cell titre glo; assay type: cell-based, human; details: 14 days
Excerpt: RPE1 cells were reverse transfected with BUB1 or control siRNA particles for 3 days. Cell lysates were collected, and analysed by western blotting using anti-BUB1 and anti-β-ACTIN antibodies. B. Graph indicating reduced cellular survival in HORMAD1 expressing RPE1 cells depleted of BUB1 using siRNA. RPE1 cells expressing a doxycycline-inducible HORMAD1 expression construct were exposed to doxycycline or vehicle, and were reverse transfected with BUB1 or control siRNA particles. 5 days post transfection, cellular viability was estimated using cell titer glo reagent and surviving fractions were calculated relative to DMSO treated cells. […] Statistical significance estimated using a one-way ANOVA with Sidak's correction. C. […] 7-10 days post doxycycline induction, cells were fixed, stained with SRB, and cellular viability was estimated using SRB absorbance readings. […] Cells were fixed, stained with SRB, and cellular viability was estimated using SRB absorbance readings. […] Cells were imaged every 4 hours, and confluence was continually measured using incucyte software. […] Cellular viability was estimated using cell titer glo reagent and surviving fractions were calculated relative to DMSO treated cells. […]
A further experiment was conducted to test the efficacy of BUB1 inhibitors to selectively kill HORMAD1-positive human tumours. […] Surviving fractions were calculated (normalised to vehicle treated cells). […]

Row | Structure (SMILES) | cellular growth / fitness of HORMAD1 expressing RPE1 cells versus vehicle-induced cells under drug [1] | growth inhibition of HORMAD1 expressing versus HORMAD1-negative patient-derived organoids (AURORA B inhibitor) ([2]; BTBC673PO versus WHIM21XO, BXO88XO, BXO78XO) | confluency reached, HORMAD1 expressing RPE1 cells ([1]; 3 μM, 240 hours, incucyte) | confluency reached, RPE1 cells without HORMAD1 expression ([1]; 3 μM, 240 hours, incucyte) [%] | growth inhibition of HORMAD1-expressing versus HORMAD1-negative patient-derived organoids (BUB1 inhibitor) ([2]; 3 HORMAD1-positive and 5 HORMAD1-negative models)
1 | CCN(CCO)CCCOc1ccc2c(Nc3cc(CC(=O)Nc4cccc(F)c4)[nH]n3)ncnc2c1 [AZD1152-HQPA] | marked decrease in cellular growth; also recorded: decreased cellular fitness | growth inhibition was more effective | – | – | –
2 | COc1cnccc1Nc1nc(-c2nn(Cc3c(F)cc(OCCO)cc3F)c3ccccc23)ncc1OC [BAY-1816032] | decreased cellular fitness | – | around 15% | ~85 | more effectively inhibited; also recorded: increased BUB1 inhibitor sensitivity

Source: US20240050434A1, “HORMAD1 THERAPEUTICS” (Royal Cancer Hospital, priority 2020, published 2024)
